Reference: patent US10195155B2, “Drug carrier for tumor-specific targeted drug delivery and use thereof” (Institute of Biophysics, Chinese Academy of Sciences, priority 2014, dated 2019)

Columns and labels:
[1] = Maximal tolerated dosage in healthy mice, single administration; settings: HFn-Dox by Dox equivalent
Description: In the therapy of a cancer patient, the dosage of administration and the number of administration were very important. However, bound by toxic side effects of chemotherapeutic drugs, the therapy of cancer usually became administration in a small amount at a high frequency.

HT-29 implanted tumor = test: Anti-tumor pharmacodynamics in nude mice bearing HT-29 implanted tumor; settings: single tail vein dose
Description: 40 female BALB/c nude mice bearing HT-29 implanted tumor were randomly divided into five groups. When the volume of the implanted tumor was up to about 100 square millimeters, drugs were injected to all of tumor-bearing mice through the tail vein. […] Since the maximal tolerated dosage of mice to free Doxorubicin was 5 mg/kg mouse body weight, the administration dosage of the free Doxorubicin group was 5 mg/kg mouse body weight. […] Measurements of body weights and tumors of mice were three times per week.

COc1cccc2c1C(=O)c1c(O)c3c(c(O)c1C2=O)C[C@@](O)(C(=O)CO)C[C@@H]3O[C@H]1C[C@H](N)[C@H](O)[C@H](C)O1 [free Doxorubicin, Doxorubicin]
maximal tolerated dosage [1]: 5 mg/kg
average survival time of tumor-bearing mice (HT-29 implanted tumor; free Dox 5 mg/kg, Doxil 20 mg/kg): 18 days
tumor growth inhibition (HT-29 implanted tumor; free Doxorubicin 5 mg/kg, HFn-Dox and Doxil 20 mg/kg, 40-day window): almost no inhibitory effect
